Data taken from patent US9902716B2, “Fluorinated benzofuranyl-pyrimidine derivatives containing a sulfone group” (Bayer Pharma Aktiengesellschaft, priority 2014, dated 2018).

Experiments:
HeLa cells = test: Proliferation assay HeLa (Method 3, crystal violet); assay type: cell-based; conditions: Homo sapiens, 96 h, 4 days incubation, read-out: Inhibition of HeLa cell proliferation IC50
Method: (§1) Cultivated tumour cells (HeLa, human cervical tumour cells, ATCC CCL-2; NCI-H460, human non-small cell lung carcinoma cells, ATCC HTB-177; A2780, human ovarian carcinoma cells, ECACC #93112519; DU 145, hormone-independent human prostate carcinoma cells, ATCC HTB-81; HeLa-MaTu-ADR, multidrug-resistant human cervical carcinoma cells, EPO-GmbH Berlin; Caco-2, human colorectal carcinoma cells, ATCC HTB-37; B16F10, mouse melanoma cells, ATCC CRL-6475) were plated at a density of 5,000 cells/well (DU145, HeLa-MaTu-ADR), 3,000 cells/well (NCI-H460, HeLa), 2,500 cells/well (A2780), 1,500 cells/well (Caco-2), or 1,000 cells/well (B16F10) in a 96-well multititer plate in 200 μL of their respective growth medium supplemented 10% fetal calf serum. After 24 hours, the cells of one plate (zero-point plate) were stained with crystal violet (see below), while the medium of the other plates was replaced by fresh culture medium (200 μl), to which the test substances were added in various concentrations (0 μM, as well as in the range of 0.001-10 μM; the final concentration of the solvent dimethyl sulfoxide was 0.5%). The cells were incubated for 4 days in the presence of test substances. Cell proliferation was determined by staining the cells with crystal violet: the cells were fixed by adding 20 μl/measuring point of an 11% glutaric aldehyde solution for 15 minutes at room temperature. After three washing cycles of the fixed cells with water, the plates were dried at room temperature. The cells were stained by adding 100 μl/measuring point of a 0.1% crystal violet solution (pH 3.0). After three washing cycles of the stained cells with water, the plates were dried at room temperature. The dye was dissolved by adding 100 μl/measuring point of a 10% acetic acid solution. The extinction was determined by photometry at a wavelength of 595 nm. The change of cell number, in percent, was calculated by normalization of the measured values to the extinction values of the zero-point plate (=0%) and the extinction of the untreated (0 μm) cells (=100%). The IC50 values (inhibitory concentration at 50% of maximal effect) were determined by means of a 4 parameter fit.

CDK2/CycE = target: T1, CDK2/CycE (Homo sapiens, UniProt P24941); test: CDK2/CycE high ATP kinase assay (Method 2b, TR-FRET); assay type: biochemical; conditions: 2 mM ATP
T1 construct: GST; purchased ProQinase GmbH (Freiburg, Germany); host or cells: insect cells (Sf9)
Method: 2b. CDK2/CycE High ATP Kinase Assay:
CDK2/CycE-inhibitory activity of compounds of the present invention at 2 mM adenosine-tri-phosphate (ATP) was quantified employing the CDK2/CycE TR-FRET (TR-FRET=Time Resolved Fluorescence Energy Transfer) assay as described in the following paragraphs.
Recombinant fusion proteins of GST and human CDK2 and of GST and human CycE, expressed in insect cells (Sf9) and purified by Glutathion-Sepharose affinity chromatography, were purchase from ProQinase GmbH (Freiburg, Germany). As substrate for the kinase reaction biotinylated peptide biotin-Ttds-YISPLKSPYKISEG (C-terminus in amid form) was used which can be purchased e.g. form the company JERINI peptide technologies (Berlin, Germany).
For the assay 50 nl of a 100 fold concentrated solution of the test compound in DMSO was pipetted into a black low volume 384 well microtiter plate (Greiner Bio-One, Frickenhausen, Germany), 2 μl of a solution of CDK2/CycE in aqueous assay buffer [50 mM Tris/HCl pH 8.0, 10 mM MgCl2, 1.0 mM dithiothreitol, 0.1 mM sodium ortho-vanadate, 0.01% (v/v) Nonidet-P40 (Sigma)] were added and the mixture was incubated for 15 min at 22° C. to allow pre-binding of the test compounds to the enzyme before the start of the kinase reaction. Then the kinase reaction was started by the addition of 3 μl of a solution ATP (3.33 mM=> final conc. in the 5 μl assay volume is 2 mM) and substrate (1.25 μM=> final conc. in the 5 μl assay volume is 0.75 μM) in assay buffer and the resulting mixture was incubated for a reaction time of 25 min at 22° C. […]
The resulting mixture was incubated 1 h at 22° C. to allow the formation of complex between the phosphorylated biotinylated peptide and the detection reagents. Subsequently the amount of phosphorylated substrate was evaluated by measurement of the resonance energy transfer from the Euchelate to the streptavidine-XL. Therefore, the fluorescence emissions at 620 nm and 665 nm after excitation at 350 nm wer measured in a TR-FRET reader, e.g. a Rubystar (BMG Labtechnologies, Offenburg, Germany) or a Viewlux (Perkin-Elmer). […]

Caco-2 cells = test: Proliferation assay Caco-2 (Method 3, crystal violet); assay type: cell-based; conditions: Homo sapiens, 96 h; Caco-2, 4 days incubation; read-out: Inhibition of Caco-2 cell proliferation IC50
Method: as §1, with “The IC50 values (inhibitory concentration at 50% of maximal effect) were determined by means of a 4 parameter fit.” left out

HeLa-MaTu-ADR cells = test: Proliferation assay HeLa-MaTu-ADR (Method 3, crystal violet); assay type: cell-based; conditions: Homo sapiens, 96 h, 4 days incubation, read-out: Inhibition of HeLa-MaTu-ADR cell proliferation IC50
Method: as §1

SMILES: CS(=O)(=O)Cc1cccc(Nc2ncc(F)c(-c3ccc(F)c4ccoc34)n2)c1 [Example 1, 5-Fluoro-4-(4-fluoro-1-benzofuran-7-yl)-N-{3-[(methylsulfonyl)methyl]-phenyl}pyrimidin-2-amine]
- IC50 (HeLa cells): 270 nM
- IC50 (CDK2/CycE): 1320 nM
- IC50 (Caco-2 cells): 300 nM
- IC50 (HeLa-MaTu-ADR cells): 290 nM

SMILES: CCS(=O)(=O)Cc1cccc(Nc2ncc(F)c(-c3ccc(F)c4ccoc34)n2)c1 [Example 2, N-{3-[(Ethylsulfonyl)methyl]phenyl}-5-fluoro-4-(4-fluoro-1-benzofuran-7-yl)pyrimidin-2-amine]
- IC50 (HeLa cells): 335 nM
- IC50 (CDK2/CycE): 917 nM
- IC50 (HeLa-MaTu-ADR cells): 100 nM

SMILES: CS(=O)(=O)Cc1cc(F)cc(Nc2ncc(F)c(-c3ccc(F)c4ccoc34)n2)c1 [Example 3]
- IC50 (HeLa cells): 100 nM
- IC50 (Caco-2 cells): 392 nM
- IC50 (HeLa-MaTu-ADR cells): 239 nM

SMILES: Cc1cc(CS(C)(=O)=O)cc(Nc2ncc(F)c(-c3ccc(F)c4ccoc34)n2)c1 [Example 4, 5-Fluoro-4-(4-fluoro-1-benzofuran-7-yl)-N-{3-methyl-5-[(methylsulfonyl)methyl]-phenyl}pyrimidin-2-amine]
- IC50 (HeLa cells): 100 nM
- IC50 (CDK2/CycE): 8560 nM
- IC50 (Caco-2 cells): 313 nM
- IC50 (HeLa-MaTu-ADR cells): 243 nM
